Results taken from US10975116B2, “Methods of treating and preventing gastrointestinal motility disorders using aminosterols” (Enterin, Inc., priority 2013, dated 2021).
Several values for one entry are separate records, joined by “and”; a condition that tells them apart may be missing. Identical values can stand only once. Entries after “also recorded” stand apart in the source; their conditions may differ.

Assays:
[1] = tested on: HIV; conditions: tissue culture; cited from earlier work
[2] = extensive studies in animals; cited from earlier work
[3] = tested on: appetite and body weight; conditions: cited from earlier work
[4] = tested on: gastrointestinal tract; assay: Aminosterol Induced GI Response after oral capsule in a human; type: in vivo
Description: Gelatin capsules were prepared for oral administration. Capsules were coated in shellac to prevent their release within the stomach. Furthermore, because squalamine and related aminosterols have antibiotic activity, enteric coating prevents the drug from altering the microbial populations of the stomach. […] Squalamine dilactate powder, 99% pure, or 1436 hydrochloride, 99% pure, was added manually into either Size 0 (for the 200 mg dose) or Size 1 (for the 100 mg dose) gelatin capsules. No excipient was added. The capsules were coated twice in 5% shellac (80% acetone/20% ethanol) and dried before use.
200 mg of squalamine (lactate salt, excipient free) in a coated gelatin capsule was administered orally to a human in the morning on an empty stomach, with water. Squalamine was synthesized as described in Zasloff et al 2011. Within 2 hours nausea was experienced, lasting about 30 minutes. At 2.5 hours, increased peristalsis (“rumbling gut”) was experienced, lasting several minutes. At about 3 hours, a clear watery discharge of about 200 ml was passed rectally. A second episode occurred at 3.2 hours. Following this episode, bowel sounds quieted. No nausea or discomfort was subsequently experienced. Appetite was near normal. Despite normal feeding, feces were not passed for 2.5 days over which time no discomfort was experienced. The first feces passed after this quiescent period was soft and relatively small considering the intake of food and the time interval. Usual bowel functions resumed by about 4 days after squalamine administration.
200 mg of 1436 (HCl salt, excipients free) in a gelatin capsule was administered orally to a human in the morning on an empty stomach, with water. […] At 2 hours, about 100 ml of clear watery diarrhea, recurring at 2.75 hours, 3 hours, 3.25 hours, and 4 hours, with progressively lesser volumes of liquid discharged. First bowel movement was passed at 3.5 days, of normal consistency. The subject experienced no abdominal discomfort, bloating, etc over this period. Usual bowel functions resumed by about 4.5 days after administration of Aminosterol 1436. […]
100 mg of squalamine was orally administered in a capsule as in the first example. […] A period of “bowel quiet” was induced, however, that lasted 2 days, after which normally formed feces were passed.

[5] = single 200 mg oral capsule, morning, empty stomach, one human

CC(C)[C@@H](CC[C@@H](C)[C@H]1CC[C@H]2[C@@H]3[C@H](O)C[C@H]4C[C@@H](NCCCNCCCCNCCCN)CC[C@]4(C)[C@H]3CC[C@]12C)OS(=O)(=O)O [Aminosterol 1436]
antiviral activity [1]: exhibits antiviral activity against HIV | absorption from the gastrointestinal tract [2]: neither squalamine nor Aminosterol 1436 can be absorbed to any extent | anorectic activity when administered orally ([3]; oral, dogs and rodents): no anorectic activity | appetite and weight on parenteral administration ([3]; parenteral): potent appetite suppression and promotion of dose-dependent weight loss; also recorded: capable of inducing weight loss | duration of the Aminosterol-Induced GI Response ([4]; following a single 200 mg oral dose): about 4 days | first clear watery rectal discharge / diarrhea, time after dosing [4, 5]: 2 h | further episodes of watery discharge, time after dosing [4, 5]: 2.75 h and 3 h and 3.25 h and 4 h | increased peristalsis, time after dosing [4, 5]: ≤ 1 h | usual bowel functions resumed, time after administration [4, 5]: about 4.5 days | volume of first clear watery discharge [4, 5]: about 100 ml | time without feces / to first bowel movement after dosing ([4]; single 200 mg oral capsule, morning, empty stomach, normal behavior about 1 passage every 24 hours): 3.5 days | estimated reduction of small intestinal motility ([4]; single 200 mg oral dose, versus normal about 1 passage every 24 hours): 3.5 fold
